The results in this text go back to ChEMBL document CHEMBL5303573, “Mapping human microbiome drug metabolism by gut bacteria and their genes” (Nature, 2019).

Data set [1] can be described thus: The drug is tested on Bifidobacterium breve strain: DSM20213 for biotransformation. The drug concentrations were measured before and after a 12-h incubation by liquid-chromatography-coupled mass spectrometry (LC–MS). Conditions: 2 µM.
Data set [2] is described as follows: The drug is tested on Bacteroides coprophilus strain: DSM18228 for biotransformation. The drug concentrations were measured before and after a 12-h incubation by liquid-chromatography-coupled mass spectrometry (LC–MS). Conditions: 2 µM.
Data set [3] is described as follows: The drug is tested on Bacteroides ovatus strain: ATCC8483 for biotransformation. The drug concentrations were measured before and after a 12-h incubation by liquid-chromatography-coupled mass spectrometry (LC–MS). The settings on record: 2 µM.
Data set [4] can be described thus: The drug is tested on Bacteroides uniformis strain: ATCC8492 for biotransformation. The drug concentrations were measured before and after a 12-h incubation by liquid-chromatography-coupled mass spectrometry (LC–MS). The settings on record: 2 µM.
Data set [5] can be described thus: The drug is tested on Odoribacter splanchnicus strain: fecal isolate for biotransformation. The drug concentrations were measured before and after a 12-h incubation by liquid-chromatography-coupled mass spectrometry (LC–MS). Conditions: 2 µM.
The nature of data set [6]: The drug is tested on Clostridium sp. strain: fecal isolate for biotransformation. The drug concentrations were measured before and after a 12-h incubation by liquid-chromatography-coupled mass spectrometry (LC–MS). The settings on record: 2 µM.
The nature of data set [7]: The drug is tested on Clostridium sporogenes strain: ATCC15579 for biotransformation. The drug concentrations were measured before and after a 12-h incubation by liquid-chromatography-coupled mass spectrometry (LC–MS). Conditions: 2 µM.
A short description of data set [8]: The drug is tested on Enterococcus faecalis strain: V583 for biotransformation. The drug concentrations were measured before and after a 12-h incubation by liquid-chromatography-coupled mass spectrometry (LC–MS). Conditions: 2 µM.
Data set [9] can be described thus: The drug is tested on Eubacterium ventriosum strain: ATCC27560 for biotransformation. The drug concentrations were measured before and after a 12-h incubation by liquid-chromatography-coupled mass spectrometry (LC–MS). The format is ADME. Also on record: dose 2 uM, timepoint 0 vs 12 hours. Conditions: 2 µM.
Data set [10] in a line: The drug is tested on Escherichia coli strain: BW25113 for biotransformation. The drug concentrations were measured before and after a 12-h incubation by liquid-chromatography-coupled mass spectrometry (LC–MS). The settings on record: 2 µM.
The conditions of data set [11]: bifidobacterium adolescentis, 12 h, 2 µM.
Description: The drug is tested on Bifidobacterium adolescentis strain: ATCC 15703 for biotransformation. The drug concentrations were measured before and after a 12-h incubation by liquid-chromatography-coupled mass spectrometry (LC–MS)
For data set [12] the following is noted: bacteroides fragilis, 12 h, 2 µM.
Description: The drug is tested on Bacteroides fragilis strain: 3397 (T10) for biotransformation. The drug concentrations were measured before and after a 12-h incubation by liquid-chromatography-coupled mass spectrometry (LC–MS)
The conditions of data set [13]: limosilactobacillus reuteri cf48-3a, 12 h, 2 µM.
Description: The drug is tested on Lactobacillus reuteri CF48-3A strain: BEI HM-102 for biotransformation. The drug concentrations were measured before and after a 12-h incubation by liquid-chromatography-coupled mass spectrometry (LC–MS)
The conditions of data set [14]: roseburia intestinalis, 12 h, 2 µM.
Description: The drug is tested on Roseburia intestinalis strain: L1-82 for biotransformation. The drug concentrations were measured before and after a 12-h incubation by liquid-chromatography-coupled mass spectrometry (LC–MS)
Data set [15] in a line: The drug is tested on Bacteroides fragilis strain: ATCC43859 for biotransformation. The drug concentrations were measured before and after a 12-h incubation by liquid-chromatography-coupled mass spectrometry (LC–MS). The settings on record: 2 µM.
Data set [16] is described as follows: The drug is tested on Eubacterium hallii strain: DSM3353 for biotransformation. The drug concentrations were measured before and after a 12-h incubation by liquid-chromatography-coupled mass spectrometry (LC–MS). Conditions: anaerobutyricum hallii, 2 µM.
For data set [17] the following is noted: segatella copri, 12 h, 2 µM.
Description: The drug is tested on Prevotella copri strain: DSM18205 for biotransformation. The drug concentrations were measured before and after a 12-h incubation by liquid-chromatography-coupled mass spectrometry (LC–MS)
The conditions of data set [18]: akkermansia muciniphila, 12 h, 2 µM.
Description: The drug is tested on Akkermansia muciniphila strain: ATCC BAA-835 for biotransformation. The drug concentrations were measured before and after a 12-h incubation by liquid-chromatography-coupled mass spectrometry (LC–MS)

Take `CN(C)C(=O)Oc1cccc([N+](C)(C)C)c1.[Br-]` [NEOSTIGMINE BROMIDE]: the “Bacterial Biotransformation” value in [1] is recorded as “Compound NOT metabolized”; in data set [2], “Compound metabolized”; in [3] it was “Compound metabolized”; in data set [4] it was “Compound metabolized”; in data set [5], “Compound NOT metabolized”; in data set [6], “Compound NOT metabolized”. Further, the “Bacterial Biotransformation” value is listed as “Compound NOT metabolized” in data set [7]; “Compound NOT metabolized” in [8]; “Compound NOT metabolized” in data set [9]; “Compound NOT metabolized” in data set [10]; “Compound NOT metabolized” in data set [11]; “Compound metabolized” in data set [12]. Also, the “Bacterial Biotransformation” value in data set [13] and in [14] was “Compound NOT metabolized” in each case.

For the compound `CCN(CC)CCOC(=O)C1(C2CCCCC2)CCCCC1` [DICYCLOMINE], the “Bacterial Biotransformation” value in data set [1], in data set [2], in data set [15], in data set [3], in data set [7] and in [8] was “Compound NOT metabolized” in each case. The “Bacterial Biotransformation” value in [16], in data set [11] and in data set [17] was “Compound NOT metabolized” in each case.

On to `Nc1nnc(-c2cccc(Cl)c2Cl)c(N)n1` [LAMOTRIGINE], for which the “Bacterial Biotransformation” value in data set [1], in data set [2], in [15], in data set [3], in [4] and in data set [6] was “Compound NOT metabolized” throughout. Besides, the “Bacterial Biotransformation” value in data set [8], in data set [16], in [9], in data set [10], in data set [11] and in data set [12] was “Compound NOT metabolized” throughout. Also, the “Bacterial Biotransformation” value in data set [17], in [13], in [14] and in [18] was “Compound NOT metabolized” throughout.

Take `O=C(Nc1ccccc1)OCC(CN1CCCCC1)OC(=O)Nc1ccccc1` (stereo not given) [DIPERODON]: the “Bacterial Biotransformation” value in data set [1], in [2], in [15], in data set [3], in data set [4] and in [7] was “Compound NOT metabolized” throughout. Moreover, the “Bacterial Biotransformation” value in data set [8], in data set [16], in [9], in data set [10], in data set [11] and in [12] was “Compound NOT metabolized” in each case. In addition, the “Bacterial Biotransformation” value in [17], in [13], in [14] and in [18] was “Compound NOT metabolized” each time.
